Ten molecules from patent US8034810B2, “Arylsulfonamido-substituted hydroxamic acid derivatives” (Novartis AG, priority 1999, dated 2011) can be followed below.

A word on the IC50: it is the midpoint of a concentration-inhibition curve. Lower therefore signals greater potency in that assay.

Where a name gives a salt, the structure may show the parent alone.

The first experiment has as its target T1, MT1-MMP (Homo sapiens, UniProt P50281).
T1 construct: made in house
Kind of experiment: In vitro inhibition of MT1-MMP, fluorogenic peptide substrate. To be noted: catalytic domain of human MT1-MMP; substrate 10 μM; 37° C. Format: biochemical. How it is done: The inhibitory activities of compounds of formula I on MT1-MMP, MMP1 (collagenase 1) and MMP2 (gelatinase A) can be determined as follows:
Stock solutions of substrate (MCA-Pro-Leu-Gly-Leu-Dpa-Ala-Arg-NH2, Knight, C. G., Willenbrock, F., Murphy, G., A novel coumarin-labelled peptide for sensitive continuous assays of the matrix metalloproteinases, FEBS lett., 296, 263-266, (1992)), are prepared in 100% DMSO at a concentration 1.0 mM. Stock solutions of inhibitors are prepared in 100% DMSO. The inhibitor is diluted into the assays from a solution in 100% DMSO, and controls substitute an equal volume of DMSO so that the final DMSO concentration from inhibitor and substrate dilutions in all assays is 6.0%. Assays are performed in assay buffer (150 mM NaCl, 10 mM CaCl2, 50 mM Tris-Cl pH7.5, 0.05% Brij-35) containing 6.0% DMSO once the substrate and inhibitor are diluted into it. The substrate concentration used in the assays is 10 μM. The test is carried out at 37° C. The fluorescence changes are monitored using an excitation wavelength of 320 nm and an emission wavelength of […]. The reaction mixture is added in duplicate to appropriate wells of a 96 well microfluor plate. The reaction mixture is preincubated with the inhibitor for 30 min, the reaction is started by the addition of MMP enzyme and the fluorescence intensity is measured for 10 min. A time point that is on a linear part of the curve is chosen to determine the activity. The inhibition results are expressed as the inhibitor concentrations that produced 50% inhibition (IC50) of the activity in the control (non-inhibited) reaction. In this test, the compounds of the formula I and their pharmacologically acceptable salts have an inhibiting concentration IC50 [μmol/litre] of 0.0001 and 0.030, usually of 0.0002 to 0.010, for MMP2 and an inhibiting concentration IC50 [μmol/litre] of 0.0005 and 0.125, usually of 0.001 to 0.05, for MT1-MMP.
Plasmid: The catalytic domain of the cDNA fragment encoding a full length of human MT1-MMP gene [from Prof. Motoharu Seiki, Institute of Medical Science, The University of Tokyo; Sato, H., Takino, T., Okada, Y., Cao, J., Shinagawa, A., Yamamoto, E. and Seiki, M. Nature (London), 370:61-65, 1994)] is amplified by polymerase chain reaction (PCR). […] The resulting PCR product of a 519-bp fragment is subcloned between the NdeI and BamHI unique sites of pET11a (Stratagene). The sequence of catalytic domain of MT1-MMP (CD-MT1-MMP) is verified by the ABI PRIS™ dye terminator cycle sequencing kit with the ABI PRISM™ 377 DNA sequencer (Perkin Elmer).
Expression and Purification: The subcloned CD-MT1-MMP is used to transfect E. coli strain BL21-[DE3] (Hanahan, D. J. Mol. Biol. 1983; 166(4):557-80) and expressed as insoluble inclusion body materials. Transfectants are grown at 37° C. in 50 ml Luria-Bertani (LB) medium in the presence of 50 µg/ml ampicillin to a cell density of OD600=0.6-1.0, and CD-MT1-MMP production is induced with 1 mM isopropyl-1-D-galactopyranoside (IPTG). After treatments with 5 mg/ml lysozyme and 10 μg/ml DNase I, the inclusion bodies are prepared from the harvested cells by using the detergent buffer containing 0.2 M NaCl, 1% w/v deoxycholic acid, and 1% v/v Nonidet P40. The solubilization is achieved by resuspending the inclusion bodies in the solubilization buffer composed of 6 M urea, 100 mM 2-mercaptoethanol, and 20 mM Tris-Cl, pH8.5. The enzyme is purified and renaturated using 10 ml of a Q-Sepharose (Amersham Pharmacia Biotech) column equilibrated with 5 mM CaCl2, 0.02% v/v NaN3, in 20 mM Tris-Cl pH7.5. After washing with three volumes of the same buffer, the bound proteins are eluted with two volumes of a linear gradient of 0.5-1.0 M NaCl. The collected fractions (1 ml each) are dialyzed for 6 h in equilibrated buffer. Superdex G200 column (1×15 cm) (Amersham Pharmacia) is equilibrated in 20 mM Tris-Cl, pH 7.5, 5 mM CaCl2, 0.02% NaN3. The desalted sample is applied to Superdex G200 column and chromatographed at 0.5 ml/min. […]
“2-[(Cyclopropylmethoxy-benzenesulfonyl)-(4-[1,2,4]triazol-1-yl-benzyl)-amino]-N-hydroxyacetamide-hydrochloride salt [Example 82b]” displayed a 50% inhibitory concentration (IC50) of 0.6 nM. For `COc1ccc(CN(CC(=O)NO)S(=O)(=O)c2ccc(OCCCCl)cc2)cc1` [Example 68, 2-{[4-(3-chloro-propoxy)-benzenesulfonyl]-(4-methoxy-benzyl)amino}-N-hydroxy-acetamide], the IC50 worked out at 5.2 nM.

Regarding `C#CCOc1ccc(S(=O)(=O)N(CC(=O)NO)Cc2ccc(OC)cc2)cc1` [Example 75, [(4-methoxy-benzyl)-[4-prop-2-ynyloxy-benzenesulfonyl]-amino]-N-hydroxy-acetamide], it took 1.4 nM to reach half-maximal inhibition (IC50). The same measure, in the same setting: the value for `C=CCCOc1ccc(S(=O)(=O)N(CC(=O)NO)Cc2ccc(-n3cncn3)cc2)cc1` [Example 79, 2-[(4-but-3-enyloxy-benzenesulfonyl)-(4-[1,2,4]triazol-1-yl-benzyl)-amino]-N-hydroxy-acetamide-hydrochloride salt] was 0.7 nM; that for `C=CCCOc1ccc(S(=O)(=O)N(CC(=O)NO)Cc2ccc(-n3ccnc3)cc2)cc1` [Example 80, 2-[(4-But-3-enyloxy-benzenesulfonyl)-(4-imidazol-1-yl-benzyl)-amino]-N-hydroxy-acetamide-hydrochloride] was 1.2 nM. On the same count and under the same terms, under `C=CCCOc1ccc(S(=O)(=O)N(CC(=O)NO)Cc2ccc(N3CCOCC3)cc2)cc1` [Example 81, 2-[(4-But-3-enyloxy-benzenesulfonyl)-(4-morpholin-4-yl-benzyl)-amino]-N-hydroxy-acetamide-hydrochloride] stands 4.6 nM.

Take `O=C(CN(Cc1ccc(-n2cncn2)cc1)S(=O)(=O)c1ccc(OCCC2CC2)cc1)NO` [Example 82a]: 1.8 nM corresponded to half-maximal inhibition (IC50). Still for that read-out and setting: the value for `O=C(CN(Cc1ccc(-n2cncn2)cc1)S(=O)(=O)c1ccc(OCc2ccoc2)cc1)NO` [Example 82c] was 10.7 nM; that for `C=CCCOc1ccc(S(=O)(=O)N(CC(=O)NO)Cc2cccc(F)n2)cc1` [Example 83a, 2-([4-But-3-enyloxy-benzenesulfonyl]-(6-fluoro-pyridine-2-yl)methyl-amino)-N-hydroxyacetamide] was 0.3 nM; that for `C=CCCOc1ccc(S(=O)(=O)N(CC(=O)NO)Cc2ccc(N3CCCC3)cc2)cc1` [Example 84a, 2-[(4-But-3-enyloxy-benzenesulfonyl)-(4-(pyrrolidin-1-yl)-benzyl)-amino]-N-hydroxyacetamide-hydrochloride] was 20.4 nM.

A further experiment deals with EGFP transfected HT1080 cells. Kind of experiment: Metastasis model with EGFP transfected HT1080 cells, lung fluorescence in nude mice. Type of experiment: in vivo. The note with it: tumor cells i.v., p.o. 60 mg/kg twice a day, lungs on day 17. The protocol:
EGFP transfected HT1080: Nude mice were injected in the tail vein a suspension of tumor cells [2×10^6 cells/0.1 ml of PBS (phosphate buffered saline)]. Animals were dosed with compounds p.o. at −1 hr and +5 hrs relative to the time of the cell injection at the first day (day 0). After that the animals were dosed twice a day, firstly at 9-10:30 a.m. and secondly at 5:30-7:00 p.m. Compounds were administered as a suspension in 1% carboxymethyl cellulose (Wako, Japan) at a dose of 60 mg/kg twice a day. The vehicle alone was administered to the control group. On day 17, the lungs were removed from mice after sacrificing the animals. The removed lung tissues were divided into pieces of approximately 2-3 mm in diameter and then ca. 100 mg of tissues were suspended in 0.2 ml PBS in the microcentrifuge tubes followed by gentle homogenization and centrifugation. […] The fluorescence intensity was determined by using fluorescence plate reader (Cytoflour II) at the excitation and emission wavelength of 485 and 530 nm, respectively. The obtained fluorescence was normalized per lung using the wet lung weight. In this test a decrease in the fluorescence of 74% compared to the vehicle alone was determined for the compound of Example 68.
Take `COc1ccc(CN(CC(=O)NO)S(=O)(=O)c2ccc(OCCCCl)cc2)cc1` [Example 68, 2-{[4-(3-chloro-propoxy)-benzenesulfonyl]-(4-methoxy-benzyl)amino}-N-hydroxy-acetamide]: the “decrease in the fluorescence compared to the vehicle alone” value is listed as 74%.
